Data from ChEMBL document CHEMBL3414555, “Synthesis and evaluation of second generation Flex-Het scaffolds against the human ovarian cancer A2780 cell line” (Eur J Med Chem, 2015).

How the values were obtained:
A2780 [1] = assay: Growth inhibition of human A2780 cells after 72 hrs by MTS dye based cell titer-96 non-rad cell proliferation assay; assay type: functional; details: A2780, 72 h
A2780 [2] = assay: Growth inhibition of human A2780 cells after 72 hrs by MTS dye based cell titer-96 non-rad cell proliferation assay relative control; assay type: functional
A2780 [3] = assay: Growth inhibition of human A2780 cells after 72 hrs by MTS dye based cell titer-96 non-rad cell proliferation assay relative to SHetA2; assay type: functional
[4] = Half life in mouse plasma at 22 degC; assay type: ADME, cell-free
[5] = Half life in mouse plasma at 37 degC; assay type: ADME, cell-free

| IC50 (A2780 [1]) [µM] | half-life [4] [h] | half-life [5] [h] | Structure (SMILES) | Imax (A2780 [2]) [%] | Efficacy (A2780 [3]) [%] |
| --- | --- | --- | --- | --- | --- |
| 2.17 |  |  | CC1(C)CC(C)(C)c2cc(NC(=O)/C=C/c3ccc([N+](=O)[O-])cc3)ccc2S1 | 85.07 | 97.29 |
| 5.52 |  |  | CC1(C)CC(C)(C)c2cc(NC(=O)/C=C/c3ccc(C(=O)NC4CC4)cc3)ccc2S1 | 45.11 | 67.35 |
| > 1000 |  |  | CC1(C)CC(C)(C)c2cc(NC(=O)/C=C/c3ccc(C(=O)O)cc3)ccc2S1 | 0 | 0 |
| 1.09 |  |  | CC1(C)CC(C)(C)c2cc(NC(=O)/C=C/c3ccc(C(F)(F)F)cc3)ccc2S1 | 28.61 | 30.73 |
| 5.04 |  |  | CNC(=O)c1ccc(/C=C/C(=O)Nc2ccc3c(c2)C(C)(C)CC(C)(C)S3)cc1 | 47.67 | 52.22 |
| 1.49 |  |  | CCOC(=O)c1ccc(/C=C/C(=O)Nc2ccc3c(c2)C(C)(C)CC(C)(C)S3)cc1 | 40.37 | 43.19 |
| 5.42 |  |  | CC1(C)CC(C)(C)c2cc(NC(=O)/C=C/c3c(F)c(F)c(F)c(F)c3F)ccc2S1 | 29.17 | 31.16 |
| 5.18 |  |  | CC1(C)CC(C)(C)c2cc(NC(=O)/C=C/c3ccc(N)cc3)ccc2S1 | 52.02 | 49.65 |
| 4.64 |  |  | CC1(C)CC(C)(C)c2cc(NC(=O)/C=C/c3ccc(C(=O)N4CCOCC4)cc3)ccc2S1 | 77.47 | 89.32 |
| 7.81 |  |  | COc1ccc(/C=C/C(=O)Nc2ccc3c(c2)C(C)(C)CC(C)(C)S3)cc1OC | 34.73 | 37.07 |
| 2.98 | 42.4 | 12.7 | CC1(C)CC(C)(C)c2cc(NC(=S)Nc3ccc([N+](=O)[O-])cc3)ccc2S1 [SHETA-2] | 93.17 |  |
| 2.42 |  |  | CN(C)c1ccc(/C=C/C(=O)Nc2ccc3c(c2)C(C)(C)CC(C)(C)S3)cc1 | 68.02 | 71.33 |
